# From patent publication US11786540B2, “Gliflozins and a method for their delivery during resuscitation from cardiac arrest to improve survival outcomes” (Rosalind Franklin University of Medicine and Science, priority 2020, dated 2023)
# Experiments:
# [1] = 25 mg oral dose in humans; cited from earlier work
# isolated mice hearts = conditions: cited from earlier work
# isolated cardiomyocytes = conditions: cited from earlier work
# [2] = test system: obese rats with diastolic dysfunction; conditions: cited from earlier work
# [3] = test system: open-chest swine model of VF; test: open-chest swine model of electrically-induced VF and simulated CPR using extracorporeal circulation; format: in vivo
# Experimental: The studies were conducted in an open-chest swine model of electrically-induced VF and simulated CPR with controlled coronary blood flow (CBF) using extracorporeal circulation (ECC).^13,14 With a high degree of precision, the ECC model allowed subjecting the myocardium to low-flow reperfusion (as CPR does) after a period of ischemia during untreated VF (as it typically occurs in patients). The model reproduces adverse myocardial effects observed during CPR including increased myocardial wall thickness that is consistently ameliorated by NHE-1 inhibition. In addition, the model also reproduces post-resuscitation myocardial dysfunction which is also ameliorated by NHE-1 inhibition. In addition, the open-chest model allows for direct assessment of the myocardium via a micro-tip pressure transducer in the left ventricle to measure left ventricular pressure with high fidelity; a flow probe around the left anterior descending coronary artery to measure coronary blood flow as a surrogate of total myocardial blood flow; ultrasonic piezoelectric crystals to continuously measure the diameter (short-axis) and wall thickness of the left ventricle at the level of the mitral valve; and echocardiography to measure left ventricle volumes and wall thickness through a 4-chamber and 2-chamber views of the heart.
# Therefore, we chose an EMPA dose expected to achieve a blood concentration of 1 μM after initial blood volume distribution in our swine model of VF and resuscitation by ECC. For this purpose, a stock solution was first prepared by dissolving 90.2 mg of EMPA (Sigma, St. Louis, Mo., MW 450.92) in 10 ml of 100% DMSO to obtain a 20 mM solution. This stock solution was diluted in saline to 200 μM. Given an estimated blood volume of 2.5 L for a 40-kg pig, 2.5 μmoles (i.e., 12.5 ml of the 200 μM solution) were given in bolus dose to attain the target blood concentration of 1 μM EMPA after initial blood volume distribution. […] Control pigs received 12.5 ml of 0.9% NaCl.
# The bolus of EMPA or control solution was given at minute 9 of untreated VF through the venous port of the extracorporeal circuit. VF was maintained untreated for 10 minutes. ECC was then initiated and maintained for an additional 16 minutes. The ECC flow was titrated with the aid of a closed-loop system to generate and maintain a CBF of 25% of the baseline CBF, measured in the left anterior descending coronary artery.^20
# Six male domestic pigs (38.2 to 43.3 kg) were fasted overnight, sedated with ketamine hydrochloride (30 mg/kg intramuscular), and anesthetized with propofol (2 mg/kg through an ear vein). The trachea was intubated with a size-7.5 orotracheal tube and positive pressure ventilation initiated with 50% oxygen using a volume-controlled ventilator (840 Ventilator System, Nellcor Puritan Bennett, Boulder, Colo.) set to deliver 10 mL/kg at a peak flow of 60 L/min with an FiO2 of 0.5. The respiratory rate was adjusted to attain an end-tidal PCO2 (PETCO2) between 38 and 42 mmHg. Anesthesia was maintained using isoflurane (1.75%-2.75%). Rectal temperature was maintained between 37.5 and 38.5° C. with a servo-controlled water-circulated blanket (Blanketrol II, Cincinnati Sub-Zero, Cincinnati, Ohio). The ECG signal was obtained during spontaneous circulation through leads placed on the right forelimb, left forelimb, and left hindlimb. During VF, the ECG signal was obtained through pads from a biphasic waveform defibrillator (E series; ZOLL Medical Corporation, Chelmsford, Mass.) placed on the shaved sides of the chest along the midaxillary line.
# A 7 F fluid-filled catheter was advanced from the right femoral artery into the descending thoracic aorta to measure aortic pressure. A 7 F thermodilution balloon-tipped catheter was advanced through the right external jugular vein into the pulmonary artery to measure cardiac output, right atrial pressure, pulmonary artery pressure, and pulmonary artery occlusive pressure (Swan-Ganz, Edwards Lifesciences, Irvine, Calif.). […]
# [4] = dose 0.5 mg/kg; cited from earlier work
# [5] = test system: patients with type 2 diabetes; conditions: cited from earlier work
# CaMKII = conditions: 24 hours exposure; cited from earlier work
# [6] = test system: closed-chest swine model of VF; format: in vivo
# Experimental: We used a swine model of VF and conventional closed-chest resuscitation with survival up to 240 minutes. We conducted 16 experiments in which 8 were randomized to receive EMPA and 8 to vehicle control given intravenously immediately before starting CPR.
# Domestic pigs (35.2 to 39.6 kg) were sedated, anesthetized, intubated, and started on mechanical ventilation as for the experiments in the open-chest model. For blood sampling and measuring aortic pressures, a 6F dual lumen pressure monitoring catheter (Langston, Vascular Solutions) was advanced through the right femoral artery past the bifurcation and into the descending thoracic aorta. For measuring left ventricular pressures, a 7F fluid-filled pigtail catheter (Langston, Vascular Solutions) was advanced through the surgically exposed right carotid artery and into the left ventricle. For blood sampling and for measuring core temperature, cardiac output by thermodilution technique, and pressures in the right atrium and pulmonary artery, a balloon-tipped pulmonary artery catheter (Swan-Ganz, Edwards Lifesciences, Irvine, Calif.) was advanced through the right external jugular vein and into the pulmonary artery. For induction of VF, a 5F pacing electrode was advanced through the right internal jugular vein into the right ventricle (FIG. 4).
# VF was induced by delivering an alternating current (1-10 mA) to the right ventricular endocardium and left untreated without ventilation for 10 minutes. At the end of untreated VF, chest compressions were started using a mechanical compressor (Michigan Thumper Model 1007, Grand Rapids, Mich.) set to compress the chest at a rate of 100 per minute with its depth titrated attempting to generate an aortic diastolic pressure of at least 25 mmHg but without exceeding a maximum compression depth of 5 cm. Ventilation with 100% oxygen was delivered using a 350-ml self-inflating pediatric bag (Lifesaver Resuscitation Bags; Teleflex Medical, N.C.). Compressions and ventilations were delivered sequentially as recommended when the airway is un-protected. Accordingly, 30 chest compressions were delivered in 18 seconds followed by 2 breaths during a 6 second compression pause. Electrical shocks were delivered through the chest pads using a biphasic waveform defibrillator (R series Zoll Corp.) with the energy set at 200-J. Shocks were delivered guided by the likelihood of successful resuscitation using an algorithm developed by us based on real-time monitoring of the VF waveform in the frequency domain known as amplitude spectral area (AMSA).^24 Epinephrine (1 mg-bolus dose; 1 ml) was delivered through the pulmonary artery catheter into the right atrium and the line flushed with 10 ml of 0.9% NaCl. The timing of epinephrine delivery was based on an AMSA advisory criterion avoiding delivery if AMSA predicted a high likelihood of shock success within the ensuing 120 seconds, with a minimum interval between doses of 240 seconds. The purpose of AMSA advisory criteria was to minimize administration of epinephrine—given its known adverse post-resuscitation effects—if not required for successful resuscitation.^25,26 Animals that achieved ROSC received 0.9% NaCl (30 ml/kg) at the maximum pump rate (999 ml/h) and were monitored for up to 240 minutes, euthanizing those that survived by delivering a right atrial bolus of KCl (150 mg/kg).
# For these experiments we used a higher EMPA dose corresponding to 0.5 mg/kg.
# For this purpose, a stock solution was prepared by dissolving 90.2 mg of EMPA (Sigma, St. Louis, Mo., MW 450.92) in 8 ml of 100% DMSO to obtain a […] solution. This stock solution was diluted in saline to 5 mM. Given an estimated blood volume of 2.5 L for a 40-kg pig, 44.64 μmoles (i.e., 8.9 ml of the 5 mM solution) of EMPA was given in bolus dose into the right atrium immediately before starting CPR to attain the target blood concentration of 17.8 μM (0.8026 mg/di) after initial blood volume distribution. […]
# [7] = test system: coronary occlusion and reperfusion; conditions: rat, in vivo; cited from earlier work
# [8] = test system: coronary occlusion and reperfusion; conditions: oral, 24 hours and 2 hours before coronary occlusion; cited from earlier work
# ischemia-reperfusion = conditions: rat and swine models of ischemia-reperfusion; cited from earlier work
# [9] = test system: swine model of cardiac arrest; conditions: given immediately before starting CPR; cited from earlier work
# [10] = vs control, statistically significant
smiles,measurement,setting,value
"OC[C@H]1O[C@@H](c2ccc(Cl)c(Cc3ccc(O[C@H]4CCOC4)cc3)c2)[C@H](O)[C@@H](O)[C@@H]1O [EMPA, Empagliflozin]",blood concentration,[1],0.69 µM
same,onset of myocardial contracture during ischemia,"isolated mice hearts; EMPA 1 μM, 18 minutes prior to ischemia and 25 minutes of ischemia",delayed
same,infarct size,isolated mice hearts; global ischemia and reperfusion,reduced
same,cytosolic sodium and cytosolic calcium,isolated cardiomyocytes,reductions
same,isovolumic relaxation time,[2]; after 30 minutes,improved
same,blood concentration,"[2]; single EMPA injection, obese rats",8.68 µM
same,myocardial changes during the resuscitation effort,[3]; between EMPA and control groups,no myocardial differences
same,"increases in Tau, the relaxation time constant, post-resuscitation",[3]; developed in control animals,not observed
same,progressive left ventricular wall thickening post-resuscitation,[3]; developed in control animals,not observed
same,cumulative energy required to terminate VF,[3]; same in both groups,60 J
same,NE doses received post-resuscitation,[3]; vs control,lower
same,PETCO2 post-resuscitation,[3]; vs control,markedly higher
same,heart rate post-resuscitation,"[3]; vs control, n=3 per group, not statistically significant",lower
same,MAP post-resuscitation,"[3]; vs control, n=3 per group, statistically significant",statistically significant higher
same,coronary vascular resistance post-resuscitation,"[3]; vs control, did not achieve statistical significance",slightly lower
same,LAD blood flow post-resuscitation,[3]; [10],substantially higher
same,cardiac index post-resuscitation,[3]; [10],markedly higher
same,left ventricular stroke work index post-resuscitation,[3]; [10],higher
same,stroke volume index post-resuscitation,[3]; [10],higher
same,adverse effect,[4],had not shown adverse effect
same,reduction in the relative risk of cardiovascular death,[5],38%
same,risk reduction of hospitalization for heart failure,[5],35%
same,CaMKII activity,CaMKII,reduction
same,end-tidal PCO2 during CPR,"[6]; 0.5 mg/kg, n=8, comparator 29±7",36±7 mmHg
same,left ventricular stroke work index post-resuscitation,[6]; vs comparator,higher
same,mean arterial pressure post-resuscitation,[6]; vs comparator,lower
same,stroke volume index post-resuscitation,[6]; vs comparator,higher
same,systemic vascular resistance post-resuscitation,[6]; vs comparator,lower
same,cardiac index post-resuscitation,"[6]; vs comparator, average of 120, 180, 240 min",higher
same,pulmonary vascular resistance post-resuscitation,"[6]; vs comparator, not shown",lower
Cc1ccc([C@@H]2O[C@H](CO)[C@@H](O)[C@H](O)[C@H]2O)cc1Cc1ccc(-c2ccc(F)cc2)s1 [canagliflozin],infarct size,[7],reduced
same,systolic and diastolic dysfunction,[7],ameliorated
same,stroke volume and cardiac output after reperfusion,[8],better
same,reductions in infarct size,ischemia-reperfusion,up to 60%
CC(C)c1ccc(C(=O)NC(=N)N)cc1S(C)(=O)=O [cariporide],myocardial wall thickening and reduction in left ventricular cavity size,[9],significant amelioration
